In assay [1] the test system is S6RP serine-240/244 phosphorylation. The assay can be described thus: In vitro phospho-S6 cellular assay. The class given is cell-based. Conditions: Homo sapiens; HEK293T/17 cells, 2 hours; read-out: pS6 inhibition value (IC50), activity level. From the text: Activation of mTOR signaling results in phosphorylation of several downstream targets. In cells, mTOR exists in two different protein complexes. The mTOR Complex-1 (mTORC1) phosphorylates and activates S6 Kinase 1 (S6K1) and S6 Kinase 2 (S6K2) (also known as p70S6K) which then phosphorylate S6 Ribosomal Protein (S6RP) (also known as RPS6)3. S6RP is phosphorylated on serine 235, serine 236, serine 240 and serine 244 by both pS6K1 and pS6K2. The mTOR Complex-2 (mTORC2) phosphorylates AKT on serine 473 which activates the AKT signaling pathway.
The assay measures a test compound's inhibition of S6RP serine-240/244 phosphorylation and inhibition of Akt serine-473 phosphorylation in human embryonic kidney derived HEK293T/17 cells (ATCC CRL-11268).
The HEK293T/17 cell line is maintained in DMEM media (Invitrogen catalogue number 41965-039) supplemented with 10% FCS at 37° C. in a 5% CO2 humidified incubator.
Cells are seeded in 96-well plates at 40,000 cells/well (pS6RP S240/244 assay) or 80,000 cells/well (pAkt S473 assay) in 90 μl growth media (DMEM, 2% FCS). Plates are incubated for 1 hour in a humidified incubator to allow the cells to adhere. Cells are treated with 8 concentrations of test compounds or DMSO alone for controls (final DMSO concentration 0.1%) and incubated at 37° C. for 2 hours. Then 20 μl of 5× concentrated lysis buffer (750 mM NaCl, 100 mM Tris pH7.4, 5 mM ADTA, 5 mM EGTA, 5% Triton X-100) is added, plates are sealed and incubated for 15 minutes at 4° C. with gentle shaking. After cell lysis, 25 μl cell lysate is transferred to a MesoScale plate coated with an antibody to pS6RP Ser240/244 (MesoScale Discovery K150DGD-3) or an antibody to pAkt Ser 473 (MesoScale Discovery K151DGD-3). Plates have been blocked before by incubation with 150 μl MesoScale Discovery Blocking Solution-A for 1 hour at room temperature followed by washing with 150 μl 1× Tris wash buffer per well. After the transfer of the cell lysate to the MSD plate, the pS6RP (or pAkt) protein is captured on the coated antibody by incubation at room temperature for 1 hour with gentle shaking. After the capture step the plate is washed three times with 150 μl of 1× Tris wash buffer per well. Then 25 μl detection antibody conjugated with a Sulfo-Tag is added and incubated for 1 hour at room temperature with gentle shaking. Subsequently the antibody solution is removed and the plate is washed 3 times with 150 μl 1× Tris wash buffer per well and 150 μl Read buffer is added. The plates are analysed on a MSD 2400 Plate Reader (MesoScale Discovery). Data analysis is performed using nonlinear regression for a sigmoidal dose-response with a variable slope.

Assay [2] concerns IFNγ release in whole blood. Put plainly: In vitro human whole blood assay (IFNγ release). The settings on record: αCD3/αCD28 and IL-2 stimulation, 18 hours, read-out: WB inhibition value (pIC50) (converted). The class given is cell-based. Here is the method: This assay measures IFNγ release in whole blood after αCD3/αCD28 and IL-2 treatment. The whole blood contains circulating T lymphocytes; αCD3/αCD28 stimulation mimics antigen receptor signalling, resulting in epigenetic changes to the IFNG gene locus, such that when IL-2 is added, IFNγ is produced.
Human whole blood, with Na-heparin as the anticoagulant, is obtained from Clinical Trials Laboratory Services. Blood is diluted 1.4 times with RPMI 1640 (Lonza, BE12-167F) and 175 μl/well is distributed in a low evaporation 96-well plates (Falcon, BD Labware, 353072). Blood is treated with 10 concentrations of test compounds or DMSO alone for controls (final DMSO concentration 0.2%) and incubated at 37° C. for 1 hour. Blood is then stimulated with 1 μg/ml αCD3 (R&D Systems, MAB100), 1 μg/ml αCD28 (BD Pharmingen, 555725) and IL-2 at 10 ng/ml (Peprotech, 200-02). Blood is then left to incubate at 37° C. for 18 hours. After, plates are spun at 250 g for 5 minutes to pellet blood cells and 25 μl of plasma is transferred to a MesoScale plate coated with an antibody to IFNγ (MesoScale Discovery K151AEC-2) containing 25 μl/well MesoScale Discovery Blocking Solution-2. Plates have been blocked by incubating with 25 μl/well MesoScale Discovery Blocking Solution-2 for 30 minutes at room temperature. After the transfer of sera to the MSD plate, the IFNγ protein is captured on the coated antibody by incubation at room temperature for 2 hour with gentle shaking. After the capture step the plate is washed three times with 150 μl/well of 1×PBS-Tween wash buffer and 25 μl/well detection antibody conjugated with a Sulfo-Tag is added and incubated for 2 hours at room temperature with gentle shaking. Subsequently the antibody solution is removed and the plate is washed 3 times with 150 μl/well 1×PBS-Tween wash buffer and 150 μl/well MesoScale Discovery Read buffer is added. The plates are analysed on a MSD 2400 Plate Reader (MesoScale Discovery). Data analysis is performed using nonlinear regression for a sigmoidal dose-response with a variable slope.

The next assay has as its target mTOR (Homo sapiens, UniProt P42345). The assay can be described thus: biochemical.
The target in assay [3] is DNA-dependent protein kinase (DNA-PK) (Homo sapiens, UniProt P78527). Put plainly: biochemical.

pIC50: −log10 of the molar value.

This note sets out measurements from patent US9242993B2, “Morpholino substituted bicyclic pyrimidine urea or carbamate derivatives as mTOR inhibitors” (CELLZOME LIMITED, priority 2011, dated 2016).

Chain of DNA-dependent protein kinase (DNA-PK) (P78527 whole entry): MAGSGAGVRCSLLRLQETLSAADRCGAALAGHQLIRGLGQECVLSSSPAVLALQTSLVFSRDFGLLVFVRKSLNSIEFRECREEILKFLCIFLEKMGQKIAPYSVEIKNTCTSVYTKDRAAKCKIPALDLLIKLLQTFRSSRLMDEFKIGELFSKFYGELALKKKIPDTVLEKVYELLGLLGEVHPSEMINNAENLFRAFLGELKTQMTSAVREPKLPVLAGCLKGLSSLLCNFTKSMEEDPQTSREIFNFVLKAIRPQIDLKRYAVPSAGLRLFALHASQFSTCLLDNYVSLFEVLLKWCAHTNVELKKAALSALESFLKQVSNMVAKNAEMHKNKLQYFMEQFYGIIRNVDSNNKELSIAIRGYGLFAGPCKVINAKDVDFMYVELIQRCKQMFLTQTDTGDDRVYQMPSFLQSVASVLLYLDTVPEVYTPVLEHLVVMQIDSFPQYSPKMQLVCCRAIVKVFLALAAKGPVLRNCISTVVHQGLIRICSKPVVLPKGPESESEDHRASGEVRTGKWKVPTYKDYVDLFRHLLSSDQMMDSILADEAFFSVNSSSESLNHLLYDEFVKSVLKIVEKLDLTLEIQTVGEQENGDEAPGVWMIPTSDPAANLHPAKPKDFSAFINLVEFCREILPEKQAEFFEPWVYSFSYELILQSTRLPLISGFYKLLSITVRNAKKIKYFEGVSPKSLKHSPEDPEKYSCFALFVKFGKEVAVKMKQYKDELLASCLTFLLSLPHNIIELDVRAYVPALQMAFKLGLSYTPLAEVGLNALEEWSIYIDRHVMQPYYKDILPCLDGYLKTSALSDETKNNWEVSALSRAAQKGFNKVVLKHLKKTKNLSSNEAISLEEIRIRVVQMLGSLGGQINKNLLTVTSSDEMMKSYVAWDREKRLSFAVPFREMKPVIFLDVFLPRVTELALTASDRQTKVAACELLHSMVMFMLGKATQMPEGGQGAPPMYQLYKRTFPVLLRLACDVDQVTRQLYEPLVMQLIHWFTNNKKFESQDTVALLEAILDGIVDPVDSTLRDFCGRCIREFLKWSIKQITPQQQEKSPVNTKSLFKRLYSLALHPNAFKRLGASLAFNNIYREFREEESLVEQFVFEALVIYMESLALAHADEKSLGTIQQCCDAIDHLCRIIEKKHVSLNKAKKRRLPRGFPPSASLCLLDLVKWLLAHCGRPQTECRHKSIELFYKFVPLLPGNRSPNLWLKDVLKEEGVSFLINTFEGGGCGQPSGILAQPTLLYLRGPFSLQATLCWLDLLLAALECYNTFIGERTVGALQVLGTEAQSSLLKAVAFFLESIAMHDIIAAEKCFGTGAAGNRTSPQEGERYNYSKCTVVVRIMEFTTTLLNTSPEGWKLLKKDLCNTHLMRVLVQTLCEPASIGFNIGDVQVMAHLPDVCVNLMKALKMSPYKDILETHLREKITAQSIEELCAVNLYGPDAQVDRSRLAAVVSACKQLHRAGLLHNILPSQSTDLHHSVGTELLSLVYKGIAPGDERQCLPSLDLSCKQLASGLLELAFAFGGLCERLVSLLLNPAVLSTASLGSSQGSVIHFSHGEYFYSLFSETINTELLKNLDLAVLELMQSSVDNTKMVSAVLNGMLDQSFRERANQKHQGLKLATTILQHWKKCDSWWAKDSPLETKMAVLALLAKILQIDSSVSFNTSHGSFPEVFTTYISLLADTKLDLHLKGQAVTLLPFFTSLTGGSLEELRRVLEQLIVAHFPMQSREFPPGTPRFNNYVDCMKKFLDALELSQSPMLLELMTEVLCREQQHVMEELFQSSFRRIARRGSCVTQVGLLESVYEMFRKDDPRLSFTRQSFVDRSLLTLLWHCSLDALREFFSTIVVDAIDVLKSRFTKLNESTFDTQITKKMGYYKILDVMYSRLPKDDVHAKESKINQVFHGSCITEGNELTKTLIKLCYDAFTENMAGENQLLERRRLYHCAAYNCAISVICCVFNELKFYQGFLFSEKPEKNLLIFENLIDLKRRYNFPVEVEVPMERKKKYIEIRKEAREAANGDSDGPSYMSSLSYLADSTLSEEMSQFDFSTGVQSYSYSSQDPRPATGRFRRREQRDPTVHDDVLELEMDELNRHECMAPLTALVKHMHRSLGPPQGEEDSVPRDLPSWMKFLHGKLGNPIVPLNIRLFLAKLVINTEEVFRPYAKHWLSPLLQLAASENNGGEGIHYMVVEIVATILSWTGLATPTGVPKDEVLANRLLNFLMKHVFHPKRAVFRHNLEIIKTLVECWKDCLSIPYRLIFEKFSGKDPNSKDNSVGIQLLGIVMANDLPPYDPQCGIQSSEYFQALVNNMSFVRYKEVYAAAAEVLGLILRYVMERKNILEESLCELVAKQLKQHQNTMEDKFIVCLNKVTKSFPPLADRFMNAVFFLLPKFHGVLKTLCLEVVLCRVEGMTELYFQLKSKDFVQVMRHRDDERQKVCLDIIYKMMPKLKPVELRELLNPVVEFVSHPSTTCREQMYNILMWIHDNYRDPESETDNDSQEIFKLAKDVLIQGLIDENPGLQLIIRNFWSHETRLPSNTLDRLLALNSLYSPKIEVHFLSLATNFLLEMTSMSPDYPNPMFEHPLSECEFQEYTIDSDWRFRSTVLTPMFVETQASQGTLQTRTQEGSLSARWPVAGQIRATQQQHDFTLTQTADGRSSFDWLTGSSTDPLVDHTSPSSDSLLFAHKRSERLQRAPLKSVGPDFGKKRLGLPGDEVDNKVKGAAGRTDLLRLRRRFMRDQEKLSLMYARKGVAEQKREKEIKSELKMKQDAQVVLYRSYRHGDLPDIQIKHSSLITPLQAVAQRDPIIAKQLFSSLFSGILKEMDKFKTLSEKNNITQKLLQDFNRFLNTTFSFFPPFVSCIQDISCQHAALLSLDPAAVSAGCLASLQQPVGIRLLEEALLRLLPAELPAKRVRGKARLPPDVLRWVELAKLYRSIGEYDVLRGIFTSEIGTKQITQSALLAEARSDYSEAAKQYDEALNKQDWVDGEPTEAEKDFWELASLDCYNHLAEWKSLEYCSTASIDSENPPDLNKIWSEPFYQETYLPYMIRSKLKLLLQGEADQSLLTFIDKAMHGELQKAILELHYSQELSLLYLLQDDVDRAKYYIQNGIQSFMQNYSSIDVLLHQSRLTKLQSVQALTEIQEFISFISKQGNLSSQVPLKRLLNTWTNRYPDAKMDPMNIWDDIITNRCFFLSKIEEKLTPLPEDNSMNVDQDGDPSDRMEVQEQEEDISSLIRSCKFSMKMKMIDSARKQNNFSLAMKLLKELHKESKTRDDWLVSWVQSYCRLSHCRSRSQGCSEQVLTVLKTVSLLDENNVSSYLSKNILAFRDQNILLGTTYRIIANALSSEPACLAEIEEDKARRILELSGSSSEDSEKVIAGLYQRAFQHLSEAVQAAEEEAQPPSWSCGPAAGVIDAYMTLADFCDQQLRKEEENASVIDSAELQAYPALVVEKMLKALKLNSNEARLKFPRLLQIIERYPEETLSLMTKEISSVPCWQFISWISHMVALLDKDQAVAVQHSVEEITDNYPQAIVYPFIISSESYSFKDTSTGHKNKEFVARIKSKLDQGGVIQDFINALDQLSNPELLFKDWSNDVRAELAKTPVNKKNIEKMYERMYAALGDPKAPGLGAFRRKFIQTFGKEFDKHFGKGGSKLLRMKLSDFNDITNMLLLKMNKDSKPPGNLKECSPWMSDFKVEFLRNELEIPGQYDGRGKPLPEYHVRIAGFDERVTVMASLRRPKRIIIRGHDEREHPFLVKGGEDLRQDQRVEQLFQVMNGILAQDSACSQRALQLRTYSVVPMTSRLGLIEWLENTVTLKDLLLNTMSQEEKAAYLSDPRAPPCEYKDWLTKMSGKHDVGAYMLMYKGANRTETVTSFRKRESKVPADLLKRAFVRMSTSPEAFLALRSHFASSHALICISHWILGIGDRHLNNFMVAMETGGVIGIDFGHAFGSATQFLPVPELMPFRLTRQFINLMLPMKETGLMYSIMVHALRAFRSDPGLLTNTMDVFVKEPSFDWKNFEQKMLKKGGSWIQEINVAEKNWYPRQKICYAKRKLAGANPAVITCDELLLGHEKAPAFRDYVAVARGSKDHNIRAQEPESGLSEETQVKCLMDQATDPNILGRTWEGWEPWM

As a reminder, the pIC50 is the negative decadic logarithm of the IC50, by convention in mol/L. Regarding `C[C@@H]1COCCN1c1nc(-c2ccc(NC(=O)NC3CC3)cc2)nc2c1[C@H](C)S(=O)(=O)C2` [Example 63, 1-cyclopropyl-3-(4-((S)-5-methyl-4-((R)-3-methylmorpholino)-6,6-dioxido-5,7-dihydrothieno[3,4-d]pyrimidin-2-yl)phenyl)urea], the pIC50 is greater than 7.00 in assay [1] and 6.00 to 7.00 against mTOR. For the same compound, the IC50 in assay [2] was 251 nM.
For `CCNC(=O)Nc1ccc(-c2nc(N3CCOCC3)c3c(n2)C(C)(C)S(=O)(=O)C3)cc1` [Example 76, 1-(4-(7,7-dimethyl-4-morpholino-6,6-dioxido-5,7-dihydrothieno[3,4-d]pyrimidin-2-yl)phenyl)-3-ethylurea] the same measures were greater than 7.00, greater than 7.00 and 631 nM.
Consider `CCCNC(=O)Nc1ccc(-c2nc3c(c(N4CCOC[C@@H]4C)n2)C(C)S(=O)(=O)C3)cc1` (stereo partly drawn) [Example 45, 1-(4-(5-methyl-4-((S)-3-methylmorpholino)-6,6-dioxido-5,7-dihydrothieno[3,4-d]pyrimidin-2-yl)phenyl)-3-propylurea], for which the negative logarithm of the IC50 (pIC50) (in assay [1]; against mTOR) was greater than 7.00 in each case. The IC50 in assay [2] was 398 nM.
Take `CCC1c2c(nc(-c3ccc(NC(=O)NC4CC4)cc3)nc2N2CCOC[C@@H]2C)CS1(=O)=O` (stereo partly drawn) [Example 49, 1-cyclopropyl-3-(4-(5-ethyl-4-((S)-3-methylmorpholino)-6,6-dioxido-5,7-dihydrothieno[3,4-d]pyrimidin-2-yl)phenyl)urea]: the pIC50 (in assay [1]; against mTOR) was greater than 7.00 throughout. Moreover, the IC50 in assay [2] is 200 nM.
As to `CC1c2c(nc(-c3ccc(NC(=O)NC4CC4)cc3)nc2N2CCOC[C@H]2C)CS1(=O)=O` (stereo partly drawn) [Example 48, 1-cyclopropyl-3-(4-(5-methyl-4-((R)-3-methylmorpholino)-6,6-dioxido-5,7-dihydrothieno[3,4-d]pyrimidin-2-yl)phenyl)urea], the pIC50 (in assay [1]; at mTOR) was greater than 7.00 throughout. Moreover, the IC50 in assay [2] is 79.4 nM.
For `CCNC(=O)Nc1ccc(-c2nc3c(c(N4CCOC[C@@H]4C)n2)[C@H](C)S(=O)(=O)C3)cc1` [Example 40, 1-ethyl-3-(4-((S)-5-methyl-4-((S)-3-methylmorpholino)-6,6-dioxido-5,7-dihydrothieno[3,4-d]pyrimidin-2-yl)phenyl)urea], the pIC50 (in assay [1]; against mTOR) was greater than 7.00 throughout. For the same compound, in assay [2], the IC50 was 200 nM.
As to `CCNC(=O)Nc1ccc(-c2nc3c(c(N4CCOC[C@@H]4C)n2)[C@@H](C)S(=O)(=O)C3)cc1` [Example 39, 1-ethyl-3-(4-((R)-5-methyl-4-((S)-3-methylmorpholino)-6,6-dioxido-5,7-dihydrothieno[3,4-d]pyrimidin-2-yl)phenyl)urea], the pIC50 (in assay [1]; on mTOR) was greater than 7.00 throughout. Also, the IC50 in assay [2] is 100 nM.
With `CCNC(=O)Nc1ccc(-c2nc(N3CCOC[C@@H]3C)c3c(n2)C(C)(C)S(=O)(=O)C3C)cc1` (stereo partly drawn) [Example 42, 1-ethyl-3-(4-(5,7,7-trimethyl-4-((S)-3-methylmorpholino)-6,6-dioxido-5,7-dihydrothieno[3,4-d]pyrimidin-2-yl)phenyl)urea], the negative-log IC50 (pIC50) (in assay [1]; at mTOR) was greater than 7.00 each time. Besides, the IC50 in assay [2] was 251 nM.
For the compound `CNC(=O)Nc1ccc(-c2nc(N3CCOC[C@@H]3C)c3c(n2)C(C)(C)S(=O)(=O)C3C)c(F)c1` (stereo partly drawn) [Example 78, 1-(3-fluoro-4-(5,7,7-trimethyl-4-((S)-3-methylmorpholino)-6,6-dioxido-5,7-dihydrothieno[3,4-d]pyrimidin-2-yl)phenyl)-3-methylurea], the pIC50 (in assay [1]; at mTOR) was greater than 7.00 each time. In addition, the IC50 in assay [2] is 501 nM.
`C[C@@H]1COCCN1c1nc(-c2ccc(NC(=O)NC3CC3)cc2)nc2c1CS(=O)(=O)C2(C)C` [Example 54, (R)-1-cyclopropyl-3-(4-(7,7-dimethyl-4-(3-methylmorpholino)-6,6-dioxido-5,7-dihydrothieno[3,4-d]pyrimidin-2-yl)phenyl)urea]: the pIC50 (in assay [1]; against mTOR) was greater than 7.00 each time. Also, the IC50 in assay [2] was 200 nM.
`CC[C@H]1COCCN1c1nc(-c2ccc(NC(=O)NC)cc2)nc2c1C(C)S(=O)(=O)C2(C)C` (stereo partly drawn) [Example 80, 1-(4-(4-((S)-3-ethylmorpholino)-5,7,7-trimethyl-6,6-dioxido-5,7-dihydrothieno[3,4-d]pyrimidin-2-yl)phenyl)-3-methylurea]: the pIC50 (in assay [1]; against mTOR) was greater than 7.00 in each case. Moreover, the IC50 in assay [2] was 100 nM.
Take `CC[C@H]1COCCN1c1nc(-c2ccc(NC(=O)NC)cc2F)nc2c1C(C)S(=O)(=O)C2(C)C` (stereo partly drawn) [Example 79, 1-(4-(4-((S)-3-ethylmorpholino)-5,7,7-trimethyl-6,6-dioxido-5,7-dihydrothieno[3,4-d]pyrimidin-2-yl)-3-fluorophenyl)-3-methylurea]: the pIC50 (in assay [1]; on mTOR) was greater than 7.00 in each case. In addition, in assay [2], the IC50 was 631 nM.
Regarding `CC1c2nc(-c3ccc(NC(=O)NC4CC4)cc3)nc(N3CCOC[C@@H]3C)c2C(C)S1(=O)=O` (stereo partly drawn) [Example 44, 1-cyclopropyl-3-(4-(5,7-dimethyl-4-((S)-3-methylmorpholino)-6,6-dioxido-5,7-dihydrothieno[3,4-d]pyrimidin-2-yl)phenyl)urea], the pIC50 (in assay [1]; against mTOR) was greater than 7.00 each time. Moreover, the IC50 in assay [2] is 39.8 nM.
`C[C@H]1COCCN1c1nc(-c2ccc(NC(=O)Nc3ccncc3)cc2)nc2c1CS(=O)(=O)C2` [Example 35, (S)-1-(4-(4-(3-methylmorpholino)-6,6-dioxido-5,7-dihydrothieno[3,4-d]pyrimidin-2-yl)phenyl)-3-(pyridin-4-yl)urea]: the results for the pIC50 (in assay [3]; in assay [1]; against mTOR) were less than 5.00, greater than 7.00 and greater than 7.00, respectively.
On to `C[C@H]1COCCN1c1nc(-c2ccc(NC(=O)NCCF)cc2)nc2c1CS(=O)(=O)C2` [Example 14, (S)-1-(2-fluoroethyl)-3-(4-(4-(3-methylmorpholino)-6,6-dioxido-5,7-dihydrothieno[3,4-d]pyrimidin-2-yl)phenyl)urea], for which the pIC50 in assay [3] was less than 5.52; in assay [1], 6.00 to 7.00; on mTOR, greater than 7.00.
Taken in the same sequence, the figures for `CC1c2c(nc(-c3ccc(NC(=O)NC4CC4)cc3)nc2N2CCOCC2)CS1(=O)=O` (stereo not drawn) [Example 31, 1-cyclopropyl-3-(4-(5-methyl-4-morpholino-6,6-dioxido-5,7-dihydrothieno[3,4-d]pyrimidin-2-yl)phenyl)urea] were less than 5.00, greater than 7.00 and 6.00 to 7.00.
